Source: a melting point compilation (Tetko et al.; mined from patent text by program, amines drawn as free bases though some values may be those of a salt)
Non-standard residues stand in square brackets, D forms with d. Residues, ends and D or L forms follow the SMILES beside them. *: point of attachment. Tos = Cc1ccc(S(=O)(=O)*)cc1; Sar = CNCC(=O)O

| SMILES | melting point |
| --- | --- |
| NC(=O)CN1C(=O)C[C@@H]2CCCCCC[C@@H]21 (relative stereo) | 110 to 112 °C |
| CCCCc1nc(C)n2nc(S)nc2c1Cc1ccc(-c2ccccc2)c(-c2nnn[nH]2)c1 | 135 to 137 °C |
| CCn1c(=O)c2[nH]c(/C=C/c3cccc(OC(F)(F)F)c3)nc2n(CC)c1=O | 266 to 267 °C |
| NC(=O)Nc1ncc(-c2ccncc2)cn1 | > 250 °C |
| Cc1ccc(S(=O)(=O)N2CCC[C@H]2C(=O)N[C@@H](Cc2ccc(OCCCN(C)Cc3ccccc3)cc2)C(=O)O)cc1 | 87 to 90 °C |
| O=C1c2cccc3c4c(cc(c23)C(=O)N1O)OCCO4 | 344 to 347 °C |
| CCOC(=O)c1cccc(N)c1NCc1ccc(-c2ccccc2C#N)cc1 | 104 to 105 °C |
| O=c1[nH]c2cccc(OCC(O)CNCCc3ccc(-n4c(CCC5CCCC5)nc5cccnc54)cc3)c2[nH]1 (stereo not drawn) | 115 to 117 °C |
| COc1cc2c(cc1C)C(=O)CCC2 | 104 to 107 °C |
| CCCOC(=O)c1ccc2c(c1)S[C@@H](c1ccc(OC)cc1)[C@@H](OC(C)=O)C(=O)N2CCN(C)C (racemic) | 114 to 119 °C |
| CC(C)n1nc(-c2nc(C#Cc3ccccn3)c(N)nc2-c2ccccc2)ccc1=O | 246 to 247 °C |
| C[C@@H]1CCCC[C@H]1C(=O)O (relative stereo) | 51 to 53 °C |
| Clc1ccc(-c2c(CC3NCCS3)cnn2-c2ccccc2)cc1 (stereo not drawn) | 170 to 172 °C |
| CSc1nc(NN)c(C#N)c(N2CCc3ccccc3CC2)n1 | > 200 °C |
| O=C1c2cccc(NC(=S)Nc3cnccn3)c2C2CCCCN12 (stereo not drawn) | 204 °C |
| COc1ccc(C(CC2=NOC(=O)C2)c2ccccc2)cc1OC1CCCC1 (stereo not drawn) | 137 to 139 °C |
| N#CC1=C(Nc2ccc(F)cc2)CCCC1 | 79 to 82 °C |
| CCn1cc(-c2nc(C#N)c(N)nc2-c2ccccc2)ccc1=O | 193 to 199 °C |
| Cc1nc(Cl)c([N+](=O)[O-])c(NCCOCCNC(=O)OC(C)(C)C)c1C | 70 to 73 °C |
| CCCCCCCCCCCCCCCCCCOC1=CC(OCCCOc2ccc(C(C)(C)C)cc2)(N(CC(=O)O)CC(=O)O)CC=C1 (stereo not drawn) | 99 to 101 °C |
| CCn1c(=N)c(-c2ccc(-c3ccccc3)cc2)cc2cnc(Nc3ccccc3)nc21 | 245 to 249 °C |
| COc1ccc(C(Nc2ccccc2)C(=O)OC(C)(C)C)cc1 (racemic) | 99 °C |
| O=c1[nH]c2ccc(S(=O)CCN3CCC(Cc4ccc(F)cc4)CC3)cc2o1 (stereo not drawn) | 202 to 204 °C |
| Cc1cc(=O)n2c3c(cc(C(O)(C(F)(F)Cl)C(F)(F)Cl)cc13)CC2 | 256 to 257 °C |
| CCCCCCCCCC1CNC(=O)O1 (stereo not drawn) | 83 to 85 °C |

| SMILES | melting point |
| --- | --- |
| Brc1ccc2nc(COc3ccc(CCCn4ccnc4)cc3)cn2c1 | 103 to 104 °C |
| CC(C)CCCC(C)C1CCC2C3CC=C4CC(OCCCCCCS)CCC4(C)C3CCC12C (stereo not drawn) | 89 to 90 °C |
| Cc1cc(C)cc(CCCn2c(=O)c3c(Cl)cc(Cl)cc3n(Cc3ccccc3)c2=O)c1 | 144 to 147 °C |
| Brc1cccc2[nH]c(-c3ccccc3)c(CCN3CCCCC3)c12 | > 230 °C |
| COS(=O)(=O)c1ccc(Cl)cc1NC(=O)/C=C/c1ccc2ccccc2c1 | 178 to 180 °C |
| COC(=O)CC[C@@H](Cc1cn(Cc2ccccc2)c2ccccc12)NC(=O)CCCCCCc1ccccc1 | 107 to 109 °C |
| CCCCc1nc(C(F)(F)CCC)nn1Cc1ccc(-c2ccccc2-c2nnn[nH]2)cc1 | 165 to 168 °C |
| Cc1c(Br)ccc(O)c1C(=O)O | 163 to 165 °C |
| Cc1cc(-c2nncc3c(C(C)(C)C)c(OCc4ccncc4)nn23)no1 | 119 to 121 °C |
| NC(=O)C1CN(Cc2ccccc2)CCN1 (stereo not drawn) | 168 °C |
| O=C(OCC=Cc1ccccc1)C(=C1NCCCS1)[N+](=O)[O-] | 115 to 116 °C |
| FC(F)(F)c1cccc(Nc2nccc(-c3cccnc3)n2)c1 | 170 to 171 °C |
| Cc1ccc(S(=O)(=O)N(C)CC(=O)N[C@@H](Cc2ccccc2)C(=O)O)cc1 (Tos-[Sar]-Phe-OH) | 128 to 130 °C |
| COc1ccc(N2CCN(c3c(C)c(C)c4c(c3C)C(CN3CCCC3)C(C)(C)O4)CC2)cc1 (stereo not drawn) | 94 to 96 °C |
| CCCCCOC(=O)c1cc(O)c2c(n1)c(C)cc1c(O)cc(C(=O)OCCCCC)nc12 | 137 to 139 °C |
| CCOC(=O)CC[C@H](NC(=O)c1ccc(CCc2cnc3nc(NC(C)=O)nc(O)c3c2)cc1)C(=O)OCC | > 200 °C |
| COCC(O)Cn1c2ccc(OC)cc2c2c3c(c(-c4ccccc4)cc21)C(=O)NC3=O (stereo not drawn) | 128 to 136 °C |
| COc1cccc2ccc(C(F)(F)F)nc12 | 88 to 89 °C |
| CCN(CC)c1c([N+](=O)[O-])cc(C(F)(F)F)c(Cl)c1[N+](=O)[O-] | 35 to 36 °C |
| COCc1cnc2c(N)cccc2c1Cl | 107 °C |
| Cc1ccc(-c2[nH]c(-c3ccccc3)nc2C(=O)Nc2nc(-c3ccccc3)cs2)cc1 | 274 to 276 °C |
| CN(C)C1(c2cccc(F)c2)CCC(=O)CC1 | 83 to 88 °C |
| COC(=O)CCc1conc1-c1ccc(Cl)c(Cl)c1 | 87 to 88 °C |
| O=C(Cc1ccccc1Cl)N[C@H]1C[C@H](C(=O)O)Nc2cc(Cl)cc(Cl)c21 (relative stereo) | 244 to 245 °C |
| O=C(O)C(=O)c1ccc(-c2ccc(Cl)cc2)s1 | 339 to 343 °C |

| SMILES | melting point |
| --- | --- |
| COc1ccc(O)c(Br)c1 | 37 to 38 °C |
| C[N+]([O-])=C(Cn1ccnc1)c1ccc(F)cc1 | 81 to 84 °C |
| O=C1c2ccc(N3CCCC3)c3c(Cl)c(Cl)cc(c23)C(=O)N1O | 200 to 201 °C |
| CC(Oc1ccccc1Cl)c1nnc(N)s1 (stereo not drawn) | 160 to 164 °C |
| CC1CC(=O)c2cc(Cl)cc(Cl)c2O1 (stereo not drawn) | 98 to 102 °C |
| COc1cccc(NC(=O)c2cc(-c3ccc(F)cc3F)ccc2O)c1 | 187 to 188 °C |
| CCC1CC(=O)N(Cc2ccc(NS(C)(=O)=O)cc2)N=C1c1ccc(OC)c(OC2CCCC2)c1 (stereo not drawn) | 69 °C |
| CCOC(=O)c1nc2ccccc2n1[C@@H]1CC(C)(C)Oc2ccc(C#N)cc21 | 169 to 171 °C |
| Cc1cc2c(Oc3ccccc3Cl)cccc2[nH]1 | 138 to 140 °C |
| CCCCCCC[C@H]1CC[C@H](COc2ccc(O)cc2)CC1 | 107 to 108 °C |
| CC(C)(C)c1ccc(-c2nc(NC(=O)C3CCCC3)sc2-c2ccncc2)cc1 | 309 to 311 °C |
| O=[N+]([O-])c1ccc2[nH]cc(CCCO)c2c1 | 107 to 110 °C |
| O=C1c2ccccc2C(c2c(O)c3ccccc3oc2=O)N1c1ccccc1 (stereo not drawn) | 335 to 337 °C |
| CCc1cc2cc(O)ccc2c(Oc2ccc(/C=C/C(=O)O)cc2)c1-c1ccccc1 | 188 to 190 °C |
| CCOC(=O)c1cn2c(cc(Br)c3ccccc32)n1 | 205 to 207 °C |
| COc1c(C2CCN(CCCCNC(=O)c3ccc(-c4ccc(Cl)cc4)cc3)CC2)ccc2ccccc12 | 197 °C |
| CC(C)(C)C(=O)OCCn1nc(-c2cc(C(C)(C)C)c(O)c(C(C)(C)C)c2)c2cccnc21 | 85 to 87 °C |
| CCOC(=O)c1cnc(N(CC)Cc2ccc3nc(C)[nH]c(=O)c3c2)s1 | 188 to 192 °C |
| CN1C(=O)[C@H](NC(=O)CNc2ccc(C(F)(F)F)cc2)N=C(c2ccccc2)c2ccccc21 | 218 to 219 °C |
| COCCSc1cc2c(N3CCc4ccc(Cl)cc43)ncnc2cc1Cl | 104 to 106 °C |
| Nc1c(N=Nc2ccc(Cl)cc2)ccc2c(S(N)(=O)=O)cccc12 | 258 °C |
| CC(C)(C)c1ccc(OCC(=O)Nc2nnc(-c3cccc(Oc4cccc(C(F)(F)F)c4)c3)s2)cc1 | 179 to 180 °C |
| Nc1nc(-c2ccccc2)nc2c1ncc(=O)n2C1CC(O)C(CO)O1 (stereo not drawn) | 169 to 172 °C |
| O=C(Nc1ccc2[nH]ncc2c1)N[C@@H](c1ccccc1)[C@@H]1CCCCN1 | 147 to 149 °C |
| CC1(C)O[C@]23C[C@H]1CC[C@]2(C)CCCC3=O | 55 to 56 °C |

| SMILES | melting point |
| --- | --- |
| OCC1=Cc2cccc(OCc3ccccc3)c2CC1 | 59 to 61 °C |
| CCCCCCCCCCCCCCCCCC(=O)n1cc(F)c(=O)[nH]c1=O | 101 °C |
| CCNC(=O)C1CN(C(c2ccccc2)c2ccccc2)C1 | 91 to 93 °C |
| Cc1nc2c3c(c(CCl)cn2c1C)CCC(c1ccccc1)C3 (stereo not drawn) | 155 to 157 °C |
| O=Cc1csc(NC(=O)OCC(Cl)(Cl)Cl)n1 | 188 to 190 °C |
| O=C(Nc1ccc(O)c(C(=O)O)c1)OCc1ccccc1 | 184 to 186 °C |
| COC(=O)c1ccc2c(c1)C(C(=O)O)c1ccccc1CO2 (stereo not drawn) | 223 to 224 °C |
| OCc1cccc(OCc2ccc3ccccc3n2)c1 | 70 °C |
| CCOC(=O)Cc1c(C)n(-c2ncnc3cc(Cl)ccc23)c2ccc(OC)cc12 | 103 to 105 °C |
| Cc1c(C)n(CC2CC2)c2c(CCc3ccc(F)cc3F)nncc12 | 159 to 160 °C |
| O=C(O)[C@@H](Cc1ccccc1)Oc1c(Br)cc(-c2c3ccccc3c(Br)c3sc4ccccc4c23)cc1Br | 140 to 142 °C |
| CSc1nn2c(N3CCN(CCO)CC3)cc(C)nc2c1S(=O)(=O)c1ccccc1 | 189 to 190 °C |
| CN(C)CCN(C(=O)c1cccc([N+](=O)[O-])c1Br)c1ccnc2cc3c(cc12)OCO3 | 96 to 97 °C |
| CCCCCCCC(=O)c1cn(CCCC(=O)O)c2ccccc12 | 100 to 102 °C |
| O=c1oc(-c2ccc(SC(F)(F)F)cc2)nc2cccc(Cl)c12 | 135 to 140 °C |
| Cc1c(C)c2c(c(C)c1N)CC(C)(CN1CCC(OCc3ccccc3)CC1)O2 (stereo not drawn) | 85 to 86 °C |
| CCOCC(=O)Nc1ncc(Cc2cc(OC)c(OC)c(OC)c2)c(N)n1 | 175 to 176 °C |
| CC(=O)NC(=S)NCCC1CC2c3cccc4[nH]cc(c34)CC2N(C)C1 (stereo not drawn) | 213 to 215 °C |
| COCOc1cccc(Cn2nc(C(=O)OC)c3c2-c2ccc(OCc4cncnc4)cc2CC3)c1 | 178 to 180 °C |
| Nc1cccc(Nc2nccc(-c3cccnc3)n2)c1 | 89 to 90 °C |
| COc1ccc(C(=O)Nc2ccccc2)cc1NC(=S)Nc1cc(C(F)(F)F)cc(C(F)(F)F)c1 | 192 to 193 °C |
| Cc1cc2c(O)nccc2s1 | 214 to 216 °C |
| COc1cc(COc2cc(CC#N)n(-c3ccccc3)n2)ccc1OCc1nc(-c2ccco2)oc1C | 141 to 142 °C |
